The values that follow come from US8673881B2, “Compositions and methods for the treatment of inflammation” (A.T. Resolve Sarl, priority 2009, dated 2014).

Data set [1] is described as follows: Ocular PK (distribution) study in Dutch-belted rabbits, topical ocular dosing, compound 1003 measured by LC/MS/MS. The format is in vivo. The following applies: topical ocular administration of compounds 1001 and 1002 to rabbits, compared with each other. As for the experimental part: The ocular distribution of compound 1001,
[drawing 220] in the ocular tissues of Dutch-belted rabbits when administered topically to the surface of the eye was evaluated.
Healthy, young adult Dutch-belted rabbits (male/female; at least 1.5 kg) were acclimated for at least 7 days prior to initiation of the study. Prior to the initiation of the study, the eyes of the rabbits were examined to ensure that the eyes were free of any defects that may affect the integrity of the study. Examinations were performed by a qualified observer.
Animals were dosed via the topical ocular route using a pipettor system which delivered a 30 μL dose to each eye. Each animal was dosed at T=0. The right eye received a dose concentration of 300 μg/mL of compound 1001 and the left eye received a dose concentration of 300 μg/mL of compound 1002. At the intervals noted in Table 3, the animals were sacrificed. […]
Spiking solutions for standards were prepared by diluting compound 1003 as its sodium salt (e.g., M is Na) (dissolved in ethanol) in ethanol spanning the concentration range of 0.100 to 4000 ng/mL of compound 1003. Two standard curves were extracted and subsequently analyzed one before and one after the samples. […]
Compound 1003 in the homogenized/extracted/dried/reconstituted samples was analyzed by LC/MS/MS using D4-PGE2 as the internal standard. […]

Data set [2] is described as follows: Chemical stability study, HPLC purity (% area) over time. To be noted: for % Area Compound / % Area Impurity: 500 μg/mL ophthalmic formulation, pH 5.5, 5° C.; for time the reference solution was stable: reference solution in water/absolute ethanol (90/10 v/v), stored at 5° C.±3° C., protected from light. It is filed as physicochemical. As for the experimental part: The chemical stability of compounds 1001 and 1002 was measured via HPLC analysis of the purity of these compounds over time. The purity assay of active components using percent area (% area) and impurities reported as percent area (% area) were measured by HPLC using the following conditions:
A sample diluent was prepared with water/absolute ethanol (90/10 v/v).
Reference solutions of compounds 1001 and 1002 were prepared by weighing approximately 10 mg (±2 mg) of a 1 mg/mL stock solution of compound 1001 or 1002 into a 1 mL amber volumetric flask. Approximately 0.5 mL of sample diluent was added and the solution swirled to mix. The sample was diluted to volume with sample diluent and mixed well. The reference solution for compound 1001 was stable for up to 7 days stored at 5° C.±3° C., protected from light. The reference solution for compound 1002 was stable for up to 3 days stored at 5° C.±3° C., protected from light.
Ophthalmic formulations of compounds 1001 (0.994 g of a 52 mg/mL solution in propylene glycol) or compound 1002 (1.034 g of a 50 mg/mL solution in propylene glycol) were prepared at 500 μg/mL dose strength in potassium phosphate buffer (25 mM, pH 5.5, 0.34 g) with 0.2 M sodium hydroxide solution (q.s.), sodium chloride (0.327 g), polysorbate 80 (0.5% w/v), and purified water (q.s. to 100). Sample solutions of compounds 1001 and 1002 were each prepared by accurately weighing approximately 20 mg of the 500 μg/mL compound formulation into a 1 mL amber volumetric flask. Approximately 0.5 mL of sample diluent was added and the solution gently swirled to mix. The solution was diluted to volume with sample diluent and mixed well.
The following equation was used to calculate the compound 1001 or compound 1002 purity assay (% area) in each sample: Analogue Content(% area)=(Area of analog/Total area of all peaks≧0.10% area)×100.
Impurities≧0.10% area were integrated and reported as % area to 2 decimal places.
Tables 5 and 6 show the results of the chemical stability study of compounds 1001 and 1002, respectively, over the course of 8 weeks at 5° C.

In data set [3] the test system is signs and symptoms of dry eye. The data set is described as follows: Study of compound 1001 in dry eye: multi-center, double-masked, randomized, placebo-controlled. The following applies: for change in ocular discomfort as compared to vehicle (ORA Ocular Discomfort Scale), improvement: dose C (275.6 μg/mL). It is filed as in vivo, human patients. From the text: The objective of this study was to compare the efficacy of compound 1001 to placebo (vehicle minus active) for the treatment of the signs and symptoms of dry eye, in a multi-center, double-masked, randomized, placebo-controlled study in which 100 human patients were equally randomized into one of three active treatment groups or placebo and all treatment groups were exposed to identical humidity, temperature, and wind conditions which exacerbated the symptoms of dry eye. During a 14 day study run-in period prior to randomization (e.g., day −14 to day 0), all patients received placebo bilaterally two times per day (BID). At the time of treatment randomization (e.g., day 0), patients were exposed to 90 minutes of identical humidity, temperature, and wind conditions which exacerbated the symptoms of dry eye after which patients were stratified based on the following criterion: Central corneal staining post-exposure<2.5 or >3.0. Patients eligible to be randomized received one of the following treatments to be administered as approximately a 30 μL drop to both eyes BID: 1) Compound 1001 at dose A (26.4 μg/mL) Ophthalmic Solution; 2) Compound 1001 at dose B (87.8 μg/mL) Ophthalmic Solution; 3) Compound 1001 at dose C (275.6 μg/mL) Ophthalmic Solution; 4) Placebo Ophthalmic Solution (Vehicle minus active). Brief Summary of Visit Schedule. […] The primary endpoint of mean ocular discomfort in the conditions for exacerbating the symptoms of dry eye using the ORA Ocular Discomfort Scale (during the 90 minute exposure) was summarized statistically (m, mean, standard deviation, median, min and max), and analyzed with 1-sided t-tests comparing the best dose to placebo with a p-value<0.025 considered significant. […] Ocular discomfort during this exposure period was measured using the ORA Ocular Discomfort Scale with the ocular discomfort score being the average of all time points during exposure. Ocular discomfort was measured again at visit 5 (e.g., day 29). […] Symptoms of grittiness, dryness were measured on environmental day 28 on a visual analog scale of 0-5.

For the compound `C#CC[C@@H](O)/C=C/C=C/C#C[C@@H](O)CCCC(=O)OC(C)C` [Compound 1001], in data set [1], the “levels of compound 1003 observed in the aqueous humor, the vitreous and the cornea (FIG. 1)” value was “comparable levels”. The “% Area Compound” value is recorded as 99.03 % Area in data set [2] (2 weeks), 99.39 % Area in data set [2] (4 weeks), 99.31 % Area in data set [2] (8 weeks) and 99.55 % Area in data set [2] (Initial). The “% Area Impurity” value amounted to 0.97 % Area in data set [2] (2 weeks), 0.61 % Area in data set [2] (4 weeks), 0.69 % Area in data set [2] (8 weeks) and 0.45 % Area in data set [2] (Initial). Moreover, the “chemical stability compared (percent purity over time)” value in data set [2] (8 weeks at 5° C., compound 1001 versus compound 1002) is “better chemical stability”. The “time the reference solution was stable” value in data set [2] is recorded as “up to 7 days”. Besides, the “dryness, visual analog scale of 0-5, change as compared to vehicle” value in data set [3] (day 28, dose C (275.6 μg/mL) topically, FIG. 4) is listed as “significant change”. In addition, the “change in ocular discomfort as compared to vehicle (ORA Ocular Discomfort Scale), improvement” value in data set [3] (day 28, approx. 30 μL drop to both eyes BID, FIG. 2) is reported as ~27%; in data set [3] (day 29, 24 hours after last treatment, FIG. 3), ~36%.
Turning to `C#CC[C@@H](O)/C=C/C=C/C#C[C@@H](O)CCCC(=O)OC` [Compound 1002], in data set [1], the “levels of compound 1003 observed in the aqueous humor, the vitreous and the cornea (FIG. 1)” value is “comparable levels”. The “% Area Compound” value in data set [2] (1 week) is listed as 97.58 % Area; in data set [2] (2 weeks) it was 97.46 % Area; in data set [2] (4 weeks), 96.54 % Area; in data set [2] (8 weeks), 94.95 % Area; in data set [2] (Initial) it was 98.29 % Area. Further, the “% Area Impurity” value in data set [2] (1 week) is recorded as 2.43 % Area; in data set [2] (2 weeks), 2.55 % Area; in data set [2] (4 weeks) it was 3.46 % Area; in data set [2] (8 weeks) it was 5.05 % Area; in data set [2] (Initial), 1.71 % Area. For the same compound, the “time the reference solution was stable” value in data set [2] is on record as “up to 3 days”.
